{
  "source": "patent US12090132B2",
  "about": "“Tris DBA pharmaceutical composition and its use for treating autoimmune diseases” (National Defense Medical Center, priority 2019, dated 2024)",
  "key": {"[1]": {"tested_on": "CD4 T cells of OVA-TCR transgenic mouse", "assay": "Antigen-specific T cell proliferation ([3H]-thymidine) and IFN-γ/IL-4, OVA-TCR CD4 T cells cultured with BMDCs", "format": "cell-based", "details": "FIG. 3L", "description": "The CD4 T cells of OVA-TCR transgenic mouse and T cell proliferation of antigenic specificity are used to analyze the manifestation of dendritic cell antigen. The OVA323-339 peptide reacts with LPS and LPS+Tris DBA groups for 16 hours respectively. The CD4 T cells abstracted from OVA-TCR transgenic mouse are cultured with BMDCs as per ratios of 1:0, 1:1, 1:2 and 1:4, the T cell proliferation is determined by radioactive [3H]-thymidine, and the processed cell supernatant is used for testing the IFN-γ and IL-4 expression levels in Th1 and Th2 cells according to the operational manual of commercial reagent kit."}, "[2]": {"tested_on": "ASLN mouse (NZB/WF1)", "assay": "Renal pathology (PAM, IHC) and autoantibody in ASLN mouse model", "format": "in vivo", "description": "(§1) Improve mouse animal model of accelerated aggravated lupus nephritis8-week-old female mouse (NZB/WF1) model is used for experiment in this embodiment, the mice are randomly divided into two groups (treatment group Tris DBA, negative control group Katimin-1), 7 mice per group, the LPS (0.6 mg/kg) is injected into the abdominal cavity of mouse twice a week, the Tris DBA (30 mg/kg) or Katimin-1® is applied by intraperitoneal injection in one week after injection, the mice are sacrificed in Week 3 and Week 5 respectively.\nWhen the mice are sacrificed in Week 3 and Week 5, the renal tissue is taken for analysis, the renal cortex tissue is stained by PAM to analyze the content of immunoglobulin G (IgG) and serum complement C3, and the content of F4/80+ macrophages and CD30+ T cells is analyzed by IHC, so as to detect specific antigen molecules in tissue slice and to perform positioning, qualitative and quantitative analyses."}, "[3]": {"tested_on": "ASLN mouse (NZB/WF1)", "assay": "Urine protein and renal function in ASLN mouse model", "format": "in vivo", "details": "30 mg/kg intraperitoneal", "description": "as §1\nThe mouse urine is collected weekly, and the serum is collected when the mice are sacrificed in Week 3 and Week 5, the changes in three biochemical indexes, which are creatinine (Cr), BUN and albumin/creatinine ratio (ACR) in urine, are tested according to the operational manual of commercial reagent kit, so as to analyze the changes in renal function."}, "[4]": {"tested_on": "autophagy factors Atg5, LC3BI/II, p62", "assay": "Autophagy factor expression in J774A.1 cells (Western Blot)", "format": "cell-based, mouse", "details": "concentration-dependent"}, "[5]": {"tested_on": "NLRP3 inflammasome", "assay": "NLRP3 inflammasome activation in LPS/ATP-treated J774A.1 cells (ELISA, Western Blot)", "format": "cell-based, mouse", "description": "Each group was treated with 0, 0.1, 0.5 and 1 μM Tris DBA culture medium for 30 minutes, reacting with 1 μg/ml lipopolysaccharide (LPS) of NLRP3 inflammasome typical activator for 5.5 hours. Finally, it reacted with 5 mM ATP reagent for 30 minutes, the IL-1β and caspase-1 cytokines were tested by ELISA.\nThe protein expression was analyzed by Western Blot, the cells and Tris DBA were cultured for 1 hour, and cultured with two groups with LPS or without LPS respectively for 5.5 hours to test the expression level of cytokines (NLRP3, caspase-1, pro-caspase-1, pro-IL-1β, pro-IL-1β) in cells. This step refers to the data from prior literature (Chang Y P, et. al. 2015. Resveratrol inhibits NLRP3 inflammasome activation by preserving mitochondrial integrity and augmenting autophagy."}, "[6]": {"tested_on": "ASLN mouse (NZB/WF1)", "assay": "Renal pathology (PAM, IHC) and autoantibody in ASLN mouse model", "format": "in vivo", "details": "ASLN mouse kidney"}, "[7]": {"tested_on": "ASLN mouse (NZB/WF1)", "assay": "T cell subsets in ASLN mouse model (NZB/WF1)", "format": "in vivo", "details": "Week 5, FIG. 3C", "description": "as §1"}, "[8]": {"tested_on": "MAPK (pERK, pJNK, pp38)", "assay": "Western Blot of MAPK phosphorylation in J774A.1 cells", "format": "cell-based, mouse"}, "[9]": {"tested_on": "ASLN mouse (NZB/WF1)", "assay": "ROS (superoxide anion) in urine, serum and renal tissue of ASLN mouse", "format": "in vivo", "details": "Week 3 and Week 5, versus Katimin-1 group", "description": "as §1\nThe ASLN mouse urine, serum and renal tissue obtained in Embodiment 2.4 are used to test antioxidant activity. The ROS content is tested according to operational manual of commercial reagent kit, the fluorescence probe dihydroethidium (Dihydroethidium, DHE) reacts with mouse urine and serum. The experimental results are represented as RLU/15 min/ml; the renal tissue is represented as RLU/15 min/mg dry weight."}, "[10]": {"tested_on": "ASLN mouse kidney", "assay": "Protein expression in renal tissue of ASLN mouse", "format": "in vivo", "description": "as §1\nThe renal tissue is thoroughly mixed with RIPA lysis, the expression levels of proteins Atg5, LC3B, p62, NLRP3, caspase-1, IL-1β, p47phox, NQO1, pERK, pJNK and pp38 are tested by gel electrophoresis (SDS-page)."}, "[11]": {"tested_on": "BMDM cells", "assay": "Mitochondrion ROS in mouse BMDM", "format": "cell-based", "details": "LPS 1 μg/mL 5.5 hours, ATP 30 minutes, FIGS. 6D-6E", "description": "The generation of mitochondrion ROS in the mouse BMDM is tested by using mitosox principle. There are two experimental groups (treatment group Tris DBA, negative control group NAC), reacting with 1 μg/mL LPS and cells for 5.5 hours, treated with ATP for 30 minutes, treated with commercial reagent H2DCFDA for one hour, so as to evaluate the cellular infiltration fluorescence intensity."}, "[12]": {"tested_on": "NF-κB", "assay": "NF-κB activation in J774A.1 cells", "format": "cell-based, mouse", "details": "FIG. 1I"}},
  "note": "“Also recorded” adds a separate entry of the source.",
  "data": [
    {"smiles": "O=C(/C=C/c1ccccc1)/C=C/c1ccccc1.O=C(/C=C/c1ccccc1)/C=C/c1ccccc1.O=C(/C=C/c1ccccc1)/C=C/c1ccccc1.[Pd].[Pd]", "note": "[Tris DBA]", "values": [
      {"measurement": "proliferation of T cells", "setting": "[1]", "result": "inhibit"},
      {"measurement": "content of immunoglobulin G (IgG)", "setting": "[2]; ASLN mouse kidney", "result": "can obviously inhibit"},
      {"measurement": "content of serum complement C3", "setting": "[2]; ASLN mouse kidney", "result": "can obviously inhibit"},
      {"measurement": "content of F4/80+ macrophages", "setting": "[2]; ASLN mouse kidney, IHC", "result": "can obviously inhibit"},
      {"measurement": "glomerular cell proliferation", "setting": "[2]; ASLN mouse renal tissue, PAM stain, FIG. 4E", "result": "obviously inhibits"},
      {"measurement": "glomerular crescent structure proliferation", "setting": "[2]; ASLN mouse renal tissue, PAM stain, FIG. 4F", "result": "obviously inhibits"},
      {"measurement": "neutrophilic infiltration", "setting": "[2]; ASLN mouse renal tissue, PAM stain, FIG. 4G", "result": "obviously inhibits"},
      {"measurement": "fibrinoid necrosis", "setting": "[2]; ASLN mouse renal tissue, PAM stain, FIG. 4H", "result": "obviously inhibits"},
      {"measurement": "renal interstitial inflammation", "setting": "[2]; ASLN mouse renal tissue, PAM stain, FIG. 4I", "result": "obviously inhibits"},
      {"measurement": "glomerulonephritis", "setting": "[2]; ASLN mouse renal tissue, PAM stain, FIG. 4J", "result": "obviously inhibits"},
      {"measurement": "anti-dsDNA autoantibody", "setting": "[2]; ASLN mouse, FIG. 4O", "result": "inhibits"},
      {"measurement": "BUN", "setting": "[3]; favorable inhibitory effect in Week 3, FIG. 4A", "result": "inhibits"},
      {"measurement": "creatinine", "setting": "[3]; favorable inhibitory effect in Week 3, FIG. 4B", "result": "inhibits"},
      {"measurement": "urine ACR", "setting": "[3]; favorable inhibitory effect in Week 3, FIG. 4C", "result": "inhibits"},
      {"measurement": "LC3BI/II expression level", "setting": "[4]; FIG. 2C, 2E", "result": "promotes"},
      {"measurement": "p62 expression level", "setting": "[4]; FIG. 2C, 2F", "result": "promotes"},
      {"measurement": "Atg5 expression level", "setting": "[4]; FIG. 2C-2D", "result": "promotes"},
      {"measurement": "NLRP3 protein expression level", "setting": "[5]; FIG. 1F", "result": "can inhibit"},
      {"measurement": "pro-IL-1β protein expression level", "setting": "[5]; FIG. 1G", "result": "can inhibit"},
      {"measurement": "expression level of IL-1β", "setting": "[5]; FIGS. 2J-2K", "result": "can inhibit"},
      {"measurement": "cytokines induced by LPS (IL-1β, caspase-1, pro-IL-1β) of cell supernatant", "setting": "[5]; Western Blot, FIG. 2B", "result": "can inhibit"},
      {"measurement": "activation of NLRP3 inflammasome (IL-1β induced by LPS)", "setting": "[5]; after treatment with ATP, FIG. 2A", "result": "inhibit"},
      {"measurement": "content of CD3+T cells", "setting": "[6]", "result": "can obviously inhibit"},
      {"measurement": "regulated T cells FoxP3+CD25+CD4+", "setting": "[7]", "result": "will not inhibit; also recorded: significantly increase"},
      {"measurement": "pERK expression level", "setting": "[8]; FIG. 1A", "result": "can inhibit"},
      {"measurement": "pJNK expression level", "setting": "[8]; FIG. 1B", "result": "can inhibit"},
      {"measurement": "pp38 expression level", "setting": "[8]; FIG. 1C", "result": "can inhibit"},
      {"measurement": "expression level of superoxide anion, kidney", "setting": "[9]; FIG. 6A", "result": "lower"},
      {"measurement": "expression level of superoxide anion, serum", "setting": "[9]; FIG. 6B", "result": "lower"},
      {"measurement": "expression level of superoxide anion, urine", "setting": "[9]; FIG. 6C", "result": "lower"},
      {"measurement": "NLRP3", "setting": "[10]; FIG. 5B", "result": "inhibitory effect"},
      {"measurement": "IL-1β", "setting": "[10]; FIG. 5C", "result": "inhibitory effect"},
      {"measurement": "Atg5", "setting": "[10]; FIG. 5G", "result": "inhibitory effect"},
      {"measurement": "LC3B I/II", "setting": "[10]; FIG. 5H", "result": "inhibitory effect"},
      {"measurement": "content of p47NADPH", "setting": "[10]; FIG. 5J", "result": "can inhibit"},
      {"measurement": "manifestation of NQO1", "setting": "[10]; FIG. 5K", "result": "can promote"},
      {"measurement": "activity of GPx", "setting": "[10]; FIG. 5L", "result": "can enhance"},
      {"measurement": "generation of mitochondria ROS", "setting": "[11]", "result": "can inhibit"},
      {"measurement": "NF-κB activation", "setting": "[12]", "result": "will not affect; also recorded: fails to inhibit"}
    ]}
  ]
}
